For experiment [1], the target named is T1, AXL kinase (Homo sapiens, UniProt P30530).
T1 construct: purchased Invitrogen PV4803
T1 sequence (P30530 26-894): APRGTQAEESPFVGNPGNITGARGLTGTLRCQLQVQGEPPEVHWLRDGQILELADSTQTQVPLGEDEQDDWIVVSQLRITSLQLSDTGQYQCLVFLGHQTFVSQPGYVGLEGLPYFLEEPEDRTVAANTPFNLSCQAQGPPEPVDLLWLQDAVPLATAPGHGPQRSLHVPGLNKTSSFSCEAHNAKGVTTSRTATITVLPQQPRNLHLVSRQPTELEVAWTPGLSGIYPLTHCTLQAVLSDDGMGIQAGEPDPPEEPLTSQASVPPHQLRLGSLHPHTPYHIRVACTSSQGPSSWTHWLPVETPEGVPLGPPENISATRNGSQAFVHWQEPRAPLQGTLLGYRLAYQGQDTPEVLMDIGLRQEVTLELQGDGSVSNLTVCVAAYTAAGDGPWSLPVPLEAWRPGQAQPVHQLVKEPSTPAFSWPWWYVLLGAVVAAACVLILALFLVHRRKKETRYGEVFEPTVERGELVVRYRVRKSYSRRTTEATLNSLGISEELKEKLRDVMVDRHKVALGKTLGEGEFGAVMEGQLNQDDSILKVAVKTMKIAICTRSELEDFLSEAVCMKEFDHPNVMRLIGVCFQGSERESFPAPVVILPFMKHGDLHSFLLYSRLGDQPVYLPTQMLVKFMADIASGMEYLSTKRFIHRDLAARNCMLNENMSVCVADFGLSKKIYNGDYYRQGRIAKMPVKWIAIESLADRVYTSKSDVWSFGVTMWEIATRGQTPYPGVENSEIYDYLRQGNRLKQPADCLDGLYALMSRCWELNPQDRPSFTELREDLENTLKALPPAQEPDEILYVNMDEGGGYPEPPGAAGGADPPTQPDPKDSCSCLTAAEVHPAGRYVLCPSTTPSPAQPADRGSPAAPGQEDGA
Description: IC50 test on AXL kinase (Z′-LYTE FRET kinase activity detection). Type of experiment: biochemical. The conditions noted are these: for IC50: Z′-LYTE FRET peptide assay, 1 h reaction. The procedure, abridged: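 AXL kinase with Z′-LYTE Tyr 2 FRET peptide, ATP and graded compound concentrations reacted 1 h, then site-specific protease cleaved non-phosphorylated peptide for 1 h. Emission at 445 and 520 nm with 400 nm excitation gave the IC50.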

Experiment [2] deals with T2, FLT-3 kinase domain recombinant protein (Homo sapiens, UniProt P36888).
T2 construct: 50 μL FLT-3 kinase domain recombinant protein diluted with reaction buffer to initiate the reaction
T2 sequence (P36888 610-943 limits assumed): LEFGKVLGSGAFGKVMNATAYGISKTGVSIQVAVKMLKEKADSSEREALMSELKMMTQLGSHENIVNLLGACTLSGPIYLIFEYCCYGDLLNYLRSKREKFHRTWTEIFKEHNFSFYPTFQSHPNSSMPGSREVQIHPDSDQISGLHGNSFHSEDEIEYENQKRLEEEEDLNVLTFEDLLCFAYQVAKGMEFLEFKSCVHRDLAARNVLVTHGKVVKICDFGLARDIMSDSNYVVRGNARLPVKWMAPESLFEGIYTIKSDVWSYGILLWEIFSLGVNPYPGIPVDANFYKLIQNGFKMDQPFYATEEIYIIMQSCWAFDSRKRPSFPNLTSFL
Description: Inhibition rate on FLT3 kinase (ELISA). Type of experiment: biochemical. Particulars: two values per compound; for inhibition at 0.01 µM / inhibition at 0.1 µM / inhibition at 1 µM: read-out: Inhibition rate (%) against receptor tyrosine kinase FLT-3. The method, then: Conventional enzyme-linked immunosorbent assay (ELISA) method is used, and the specific steps are as follows
12,000 g of compounds were centrifuged for 5 min, DMSO was added to make a 10^−2M stock solution, vortexed uniformly and sonicated for 10 min for standby application, and stored at −40° C. The compounds were diluted from the stock solution with DMSO to 100 times the concentration to be tested (concentration of DMSO in the system being 1%) during the test.
1. The enzyme reaction substrate Poly (Glu, Tyr) 4:1 was diluted to 20 μg/mL with potassium-free PBS (10 mM sodium phosphate buffer, 150 mM NaCl, pH 7.2-7.4), the ELISA plate was coated with same in 125 μL/well, and reacted at 37° C. for 12-16 hours, the liquid in wells was discarded, the plate was washed three times, for 5 minutes each time, with T-PBS (potassium-free PBS with 0.1% Tween-20, 200 μL/well), and the ELISA plate was dried in an oven at 37° C. for 1-2 hours.
2. To each well were added 49 μL of ATP solution diluted with reaction buffer (50 mM HEPES pH 7.4, 50 mM MgCl2, 0.5 mM MnCl2, 0.2 mM Na3VO4, 1 mM DTT), 1 μL of compounds to be tested, and 50 μL FLT-3 kinase domain recombinant protein diluted with reaction buffer to initiate the reaction (two ATP-free control wells are required for each experiment). Subject to a shaker (100 rpm) at 37° C. and reacted for 1 hour. The liquid in wells was discarded, and the plate was washed three times with T-PBS.
3. Antibody PY99 diluent (the antibody was diluted in 1:500 with T-PBS which contains 5 mg/mL BSA) was added in 100 μL/well, subjected same to a shaker at 37° C. and reacted for 0.5 hour. The liquid in wells was discarded, and the plate was washed three times with T-PBS.
4. Horseradish peroxidase labeled goat anti-mouse secondary antibody diluent (the antibody was diluted in 1:2000 with T-PBS which contains 5 mg/ml BSA) was added in 100 μL/well, subjected same to a shaker at 37° C. and reacted for 0.5 hour. The liquid in wells was discarded, and the plate was washed three times with T-PBS.
5. 2 mg/ml of OPD developing solution (diluted with 0.1 M citric acid-sodium citrate buffer which contains 0.03% H2O2 (pH=5.4)) was added in 100 μL/well, and reacted at 25° C. in the dark for 1-10 minutes.
6. 2 M H2SO4 was added in 50 μL/well to stop the reaction, and the reading from the wavelength-adjustable microwell plate ELIASA VERSAmax was performed with a wavelength of 490 nm.

In experiment [1], `CCc1ccc2c(c1)c(=O)c(C(=O)Nc1ccc(Oc3ccnc(N)c3Cl)c(F)c1)c(C)n2C` [GDL5000059, N-(4-((2-amino-3-chloropyridin-4-yl)oxy)-3-fluorophenyl)-6-ethyl-1,2-dimethyl-4-oxo-1,4-dihydroquinoline-3-carboxamide] returned an IC50 of 72 nM. Further, the “Inhibition rate (%) against receptor tyrosine kinase FLT-3” value (shortened to “Inhibition rate (%)”) was found to be 52.7% in experiment [2] (compound 10 nM, 0.01 µM); 63.8% in experiment [2] (compound 100 nM, 0.1 µM); 82.3% in experiment [2] (compound 1000 nM, 1 µM). The inhibition at 0.01 µM in experiment [2] (compound 10 nM) was 55.9%. Moreover, the inhibition at 0.1 µM in experiment [2] (compound 100 nM) is 67.8%. In addition, the inhibition at 1 µM in experiment [2] (compound 1000 nM) was 88.7%.

Consider `CCc1ccc2c(c1)c(=O)c(C(=O)Nc1ccc(Oc3ncnc4[nH]cc(-c5ccccc5)c34)c(C)c1)c(C)n2C` [TL4830016, 6-ethyl-12-dimethyl-N-(3-methyl-4-(5-phenyl-7H-pyrrolo[2,3-d]pyrimidin-4-yloxy)phenyl)-4-oxo-1,4-dihydroquinoline-3-carboxamide], for which, in experiment [1], it took 1120 nM to reach half-maximal inhibition (IC50). Also, the “Inhibition rate (%)” value in experiment [2] (compound 10 nM, 0.01 µM) is 66.5%; in experiment [2] (compound 100 nM, 0.1 µM) it was 66.1%; in experiment [2] (compound 1000 nM, 1 µM), 70.1%. Besides, the inhibition at 0.01 µM in experiment [2] (compound 10 nM) was 50.2%. In addition, the inhibition at 0.1 µM in experiment [2] (compound 100 nM) came out at 58.3%. Besides, the inhibition at 1 µM in experiment [2] (compound 1000 nM) worked out at 67.1%.

Regarding `Cc1c(C(=O)Nc2ccc(Oc3ncnc4[nH]cc(-c5ccccc5)c34)c(F)c2)c(=O)c2cc(F)ccc2n1C` [TL50087, 6-fluoro-N-(3-fluoro-4-(5-phenyl-7H-pyrrolo[2,3-d]pyrimidin-4-yloxy)phenyl)-1,2-dimethyl-4-oxo-1,4-hydroquinoline-3-carboxamide], the IC50 in experiment [1] is more than 10000 nM. Also, the “Inhibition rate (%)” value in experiment [2] (compound 10 nM, 0.01 µM) is recorded as 41.8%; in experiment [2] (compound 100 nM, 0.1 µM), 45.8%; in experiment [2] (compound 1000 nM, 1 µM), 67.2%. The inhibition at 0.01 µM in experiment [2] (compound 10 nM) was found to be 46.1%. For the same compound, in experiment [2] (compound 100 nM), the inhibition at 0.1 µM is 47.4%. The inhibition at 1 µM in experiment [2] (compound 1000 nM) came to 84%.

In turn, `CCc1ccc2c(c1)c(=O)c(C(=O)Nc1ccc(Oc3ncnc4[nH]cc(-c5cnn(C)c5)c34)c(F)c1)c(C)n2C` [GDL5000038, 6-ethyl-N-(3-fluoro-4-(5-(1-methyl-1H-pyrazol-4-yl)-7H-pyrrolo[2,3-d]pyrimidin-4-yloxy)phenyl)-1,2-dimethyl-4-oxo-1,4-dihydroquinoline-3-carboxamide] gave a 50% inhibitory concentration (IC50) in experiment [1] of 34 nM. The “Inhibition rate (%)” value in experiment [2] (compound 10 nM, 0.01 µM) came out at 55.0%; in experiment [2] (compound 100 nM, 0.1 µM), 73.0%; in experiment [2] (compound 1000 nM, 1 µM), 95.9%. In addition, in experiment [2] (compound 10 nM), the inhibition at 0.01 µM turned out to be 58.3%. Moreover, in experiment [2] (compound 100 nM), the inhibition at 0.1 µM was found to be 80.7%. For the same compound, in experiment [2] (compound 1000 nM), the inhibition at 1 µM was found to be 98.2%.

`COc1cc2ncnc(Oc3ccc(NC(=O)c4cn(C5CC5)c5cc(N6CCNCC6)c(F)cc5c4=O)cc3F)c2cc1OC` [GDL5000110, 1-cyclopropyl-N-(4-(6,7-dimethoxyquinazolin-4-yloxy)-3-fluorophenyl)-6-fluoro-4-oxo-7-(piperazin-1-yl)-1,4-dihydroquinoline-3-carboxamide] returned an IC50 in experiment [1] of 20 nM. Further, the “Inhibition rate (%)” value is listed as 49.2% in experiment [2] (compound 10 nM, 0.01 µM); 51.8% in experiment [2] (compound 100 nM, 0.1 µM); 81.2% in experiment [2] (compound 1000 nM, 1 µM). In addition, the inhibition at 0.01 µM in experiment [2] (compound 10 nM) is 48.5%. The inhibition at 0.1 µM in experiment [2] (compound 100 nM) came out at 50.3%. In addition, in experiment [2] (compound 1000 nM), the inhibition at 1 µM was 83.5%.

In turn, `Cc1c(C(=O)Nc2ccc(Oc3ncnc4[nH]cc(-c5ccccc5)c34)c(F)c2)c(=O)c2cc(C(F)(F)F)ccc2n1C` [TL50121, N-(3-fluoro-4-((5-phenyl-7H-pyrrolo[2,3-d]pyrimidin-4-yl)oxy)phenyl)-1,2-dimethyl-4-oxo-6-(trifluoromethyl)-1,4-dihydroquinoline-3-carboxamide] displayed an IC50 in experiment [1] of 153 nM. Moreover, the “Inhibition rate (%)” value in experiment [2] (compound 10 nM, 0.01 µM) was found to be 61.6%; in experiment [2] (compound 100 nM, 0.1 µM), 63.3%; in experiment [2] (compound 1000 nM, 1 µM), 77.6%. Also, the inhibition at 0.01 µM in experiment [2] (compound 10 nM) turned out to be 58.2%. Moreover, the inhibition at 0.1 µM in experiment [2] (compound 100 nM) was 66.7%. Besides, the inhibition at 1 µM in experiment [2] (compound 1000 nM) was 84.4%.

`CCc1ccc2c(c1)c(=O)c(C(=O)Nc1ccc(Oc3ncnc4[nH]cc(-c5ccc(OC)cc5)c34)c(F)c1)c(C)n2C` [GDL5000037, 6-ethyl-N-(3-fluoro-4-(5-(4-methoxyphenyl)-7H-pyrrolo[2,3-d]pyrimidin-4-yloxy)phenyl)-1,2-dimethyl-4-oxo-1,4-dihydroquinoline-3-carboxamide] had a half-maximal inhibitory concentration (IC50) in experiment [1] of 16 nM. Also, the “inhibitory activity on AXL kinase” value in experiment [1] (competitive experiment with ATP, in words) is given as “strong inhibitory activity”. For the same compound, the “Inhibition rate (%)” value in experiment [2] (compound 10 nM, 0.01 µM) worked out at 59.8%; in experiment [2] (compound 100 nM, 0.1 µM), 66.5%; in experiment [2] (compound 1000 nM, 1 µM) it was 91.6%. The inhibition at 0.01 µM in experiment [2] (compound 10 nM) was 65.3%. For the same compound, the inhibition at 0.1 µM in experiment [2] (compound 100 nM) is 74.3%. Besides, in experiment [2] (compound 1000 nM), the inhibition at 1 µM was 100%.

A word on the IC50: it is the concentration that gives 50% inhibition. Low readings indicate higher potency, high ones lower potency. The term inhibition denotes the drop in the measured response relative to a control, in per cent.

Source of the values: patent US10683278B2 (JINAN UNIVERSITY, priority 2015, dated 2020).
